For 27 compounds, IC50 cytotoxicity (DAPI nuclear signal decrease) and IC50 results are on record in PubChem BioAssay AID651630 (Sanford-Burnham Center for Chemical Genomics, 2012).

Molecules are shown by their SMILES. Active and inactive are the calls of the source.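 How the source made its calls: active means lipid-stain IC50 at or below a set limit, with nuclear-stain toxicity IC50 at least five times higher; inactive means the rest.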 A value given as a limit tells only on which side of the number the result lay.

The subject of one assay is DAPI. Kind of assay: TAG lipid buildup inhibition with viability readout – cell-based, panel, Nile Red and DAPI fluorescence, H9c2, dose response (AID 651630).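 Further: cells exposed to compound overnight before fixation and staining.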 The note with it: H9c2 cells, DAPI nuclear fluorescence (cytotoxicity counter-readout), oleic acid.
For a further assay, the system named is TAG. Described as above. The note with it: H9c2 cells, Nile Red TAG fluorescence, oleic acid.

Regarding `COc1cc2c(c(OC)c1OC)-c1ccc(OC)c(=O)cc1C(NC(=O)c1ccccc1)CC2` (configuration not stated), the IC50 cytotoxicity (DAPI nuclear signal decrease) with DAPI (mean of runs) was > 25 µM (inactive); in the assay on DAPI (run 1), more than 25 µM; in the assay with DAPI (run 2) it was more than 25 µM. Further, the IC50 (as a rule, the midpoint of a concentration-inhibition curve) in the assay on TAG (run 1) is 12.2 µM; in the assay with TAG (run 2) it was more than 25 µM.
As to `COCCn1cnc2c(c1=O)c1nc3ccccc3nc1n2/N=C/c1ccc(OC)c(OC)c1`, the results for the IC50 cytotoxicity (DAPI nuclear signal decrease) with DAPI (run 1) and with DAPI (run 2) were 23.4 µM and more than 25 µM, respectively. For the same compound, the results for the 50% inhibitory concentration (IC50) in the assay with TAG (mean of runs), with TAG (run 1) and in the assay with TAG (run 2) were 5.19 µM, 3.71 µM and 6.68 µM, respectively.
As to `CCN1CCN(c2ncc3c(n2)CC(c2cc(OC)c(OC)c(OC)c2)CC3=O)CC1` (configuration not stated), the IC50 cytotoxicity (DAPI nuclear signal decrease) is > 25 µM (inactive) in the assay with DAPI (mean of runs), more than 25 µM in the assay on DAPI (run 1) and more than 25 µM in the assay with DAPI (run 2). For the same compound, the IC50 in the assay with TAG (mean of runs) was > 25 µM (inactive); with TAG (run 1), more than 25 µM; in the assay with TAG (run 2), more than 25 µM.
Turning to `COc1ccc2[nH]c3c(c2c1)CCN1C(=O)C(CC(=O)NCc2cccc(C(F)(F)F)c2)C[C@H](C(=O)N2CCCCC2)[C@@]31CCc1ccccc1` (some centres not stated), the IC50 cytotoxicity (DAPI nuclear signal decrease) in the assay with DAPI (mean of runs) was > 25 µM (inactive); with DAPI (run 1) it was more than 25 µM; in the assay on DAPI (run 2), more than 25 µM. The IC50 is 10 µM with TAG (mean of runs), 14.8 µM with TAG (run 1) and 5.34 µM in the assay with TAG (run 2).
Take `CCN(CC)S(=O)(=O)c1ccc(N2CCOCC2)c(NC(=O)c2[nH]c(C)c(C(C)=O)c2C)c1`: the IC50 cytotoxicity (DAPI nuclear signal decrease) with DAPI (mean of runs) was > 25 µM (inactive); in the assay with DAPI (run 1), more than 25 µM; with DAPI (run 2) it was more than 25 µM. For the same compound, the IC50 in the assay with TAG (mean of runs) was 7 µM; in the assay on TAG (run 1) it was 6.05 µM; in the assay with TAG (run 2) it was 7.95 µM.
For the compound `C[C@@H]1CN([C@@H](C)CO)C(=O)c2cccc(NC(=O)Nc3ccc(F)cc3)c2O[C@@H]1CN(C)Cc1ccc(Oc2ccccc2)cc1`, the IC50 cytotoxicity (DAPI nuclear signal decrease) in the assay on DAPI (run 1) and in the assay on DAPI (run 2) was more than 25 µM in each case. Further, the figures for the IC50 in the assay on TAG (mean of runs), in the assay with TAG (run 1) and in the assay on TAG (run 2) were 1.42 µM, 1.71 µM and 1.14 µM, respectively.
As for `COc1ccc(-c2sc3cc4c(cc3c2C#Cc2ccc(N)cc2)OCO4)cc1`, the IC50 cytotoxicity (DAPI nuclear signal decrease) with DAPI (mean of runs) was > 25 µM (inactive); with DAPI (run 1), more than 25 µM; with DAPI (run 2), more than 25 µM. The values for the IC50 in the assay with TAG (mean of runs), in the assay with TAG (run 1) and in the assay on TAG (run 2) were > 25 µM (inactive), more than 25 µM and more than 25 µM, respectively.
On to `C=CCn1c(SCc2c(C)noc2C)nc2sc3c(c2c1=O)CCC(C)C3` (configuration not stated), for which the IC50 cytotoxicity (DAPI nuclear signal decrease) is > 25 µM (inactive) in the assay with DAPI (mean of runs), more than 25 µM with DAPI (run 1) and more than 25 µM in the assay with DAPI (run 2). Moreover, the IC50 in the assay with TAG (mean of runs) is > 25 µM (inactive); in the assay on TAG (run 1), more than 25 µM; in the assay on TAG (run 2), more than 25 µM.
Consider `CSc1nc(N(C)NC(=O)c2ccc(Cl)cc2)c2ccccc2n1`, for which the IC50 cytotoxicity (DAPI nuclear signal decrease) in the assay on DAPI (mean of runs) is > 25 µM (inactive); in the assay on DAPI (run 1), more than 25 µM; with DAPI (run 2), more than 25 µM. Also, the IC50 was > 25 µM (inactive) in the assay on TAG (mean of runs), more than 25 µM with TAG (run 1) and more than 25 µM in the assay with TAG (run 2).
On to `COc1ccc(-c2cc(NC=O)c3ncc(-c4ccc(OC)c(OC)c4)n3c2)cc1`, for which the IC50 cytotoxicity (DAPI nuclear signal decrease) was more than 25 µM in the assay with DAPI (run 1) and 5.58 µM with DAPI (run 2). The IC50 was 13.2 µM in the assay with TAG (mean of runs), 12.5 µM in the assay on TAG (run 1) and 13.9 µM in the assay with TAG (run 2).
For `CCOc1cc(C(=O)N/N=C/c2cn(-c3ccccc3)nc2-c2cc3ccccc3o2)cc(OCC)c1OCC`, the IC50 cytotoxicity (DAPI nuclear signal decrease) is > 25 µM (inactive) in the assay with DAPI (mean of runs), more than 25 µM in the assay with DAPI (run 1) and more than 25 µM in the assay on DAPI (run 2). The IC50 in the assay with TAG (mean of runs) is 10.2 µM; with TAG (run 1), 9.28 µM; with TAG (run 2) it was 11.2 µM.
`CC(C)(C)NC(=O)C(c1ccc(-c2ccccc2)cc1)N(C[C@H]1CC[C@@H]([C@@H]2CC[C@H](CO)O2)O1)C(=O)c1ccc(-c2ccccc2)cc1` (some centres not stated): the IC50 cytotoxicity (DAPI nuclear signal decrease) in the assay on DAPI (mean of runs) was > 25 µM (inactive); in the assay on DAPI (run 1), more than 25 µM; with DAPI (run 2), more than 25 µM. The IC50 was 13.8 µM with TAG (mean of runs), 12.3 µM in the assay on TAG (run 1) and 15.3 µM in the assay on TAG (run 2).
`CCOc1ccccc1NC(=O)c1cccc(NC(=O)c2ccco2)c1`: the IC50 cytotoxicity (DAPI nuclear signal decrease) with DAPI (mean of runs) is > 25 µM (inactive); with DAPI (run 1), more than 25 µM; in the assay with DAPI (run 2) it was more than 25 µM. The half-inhibitory concentration (IC50) with TAG (run 1) is more than 25 µM; in the assay on TAG (run 2) it was 9.58 µM.
Consider `COc1ccc(NC(=S)N(CCCN2CCCC2)Cc2cccn2Cc2ccc(Cl)cc2)cc1Cl`, for which the IC50 cytotoxicity (DAPI nuclear signal decrease) in the assay on DAPI (run 1) was 24.1 µM; in the assay with DAPI (run 2) it was more than 25 µM. Also, the IC50 is 16.8 µM with TAG (run 1) and more than 25 µM with TAG (run 2).
For `O=[N+]([O-])c1ccc(Nc2nc(N3CCOCC3)nc(N3CCOCC3)n2)cc1`, the results for the IC50 cytotoxicity (DAPI nuclear signal decrease) in the assay with DAPI (mean of runs), in the assay on DAPI (run 1) and in the assay on DAPI (run 2) were > 25 µM (inactive), more than 25 µM and more than 25 µM, respectively. Moreover, the IC50 with TAG (mean of runs) was 21.4 µM (inactive); in the assay on TAG (run 1), 24.2 µM; with TAG (run 2), 18.6 µM.
For the compound `Cc1cc(=O)oc2cc(NC(=O)c3cccc(Br)c3)ccc12`, the IC50 cytotoxicity (DAPI nuclear signal decrease) in the assay on DAPI (mean of runs) is > 25 µM (inactive); in the assay with DAPI (run 1), more than 25 µM; in the assay on DAPI (run 2) it was more than 25 µM. Moreover, the IC50 in the assay on TAG (mean of runs) is > 25 µM (inactive); with TAG (run 1), more than 25 µM; in the assay with TAG (run 2), more than 25 µM.
Regarding `COc1ccc(NC(=O)N(C)[C@H]2C[C@H]3c4[nH]c5ccc(-c6ccc7c(c6)OCO7)cc5c4CCN3C[C@H]2[C@H](C)O)cc1`, the IC50 cytotoxicity (DAPI nuclear signal decrease) is > 25 µM (inactive) in the assay with DAPI (mean of runs), more than 25 µM in the assay on DAPI (run 1) and more than 25 µM in the assay with DAPI (run 2). For the same compound, the IC50 with TAG (mean of runs) was 7.49 µM; in the assay with TAG (run 1), 8.2 µM; in the assay on TAG (run 2), 6.77 µM.
As for `CCn1ncc(/C=N/N=C2\CCC3C4CCc5cc(O)ccc5C4CCC23C)c1C` (configuration not stated), the IC50 cytotoxicity (DAPI nuclear signal decrease) in the assay with DAPI (mean of runs) was > 25 µM (inactive); with DAPI (run 1) it was more than 25 µM; in the assay on DAPI (run 2) it was more than 25 µM. Also, the IC50 in the assay on TAG (mean of runs) was > 25 µM (inactive); in the assay with TAG (run 1), more than 25 µM; in the assay with TAG (run 2), more than 25 µM.
For the compound `CCOC(=O)Nc1ccc2c(c1)C(=NNC(=S)NC)c1ccccc1-2`, the IC50 cytotoxicity (DAPI nuclear signal decrease) in the assay on DAPI (run 1) was more than 25 µM; with DAPI (run 2), 9.75 µM. For the same compound, the IC50 in the assay with TAG (mean of runs) is > 25 µM (inactive); in the assay with TAG (run 1), more than 25 µM; in the assay with TAG (run 2), more than 25 µM.
Regarding `CCCCCc1cc(=O)oc2c(C(CCN(CC)CC)c3ccc(OC)cc3)c(OC)cc(OC)c12` (configuration not stated), the IC50 cytotoxicity (DAPI nuclear signal decrease) with DAPI (mean of runs) was > 25 µM (inactive); in the assay on DAPI (run 1), more than 25 µM; in the assay on DAPI (run 2), more than 25 µM. The IC50 in the assay with TAG (mean of runs) is > 25 µM (inactive); in the assay on TAG (run 1), more than 25 µM; in the assay on TAG (run 2), more than 25 µM.
With `CCOC(=O)c1cc(CC)sc1NC(=O)c1cc([N+](=O)[O-])ccc1N1CCOCC1`, the IC50 cytotoxicity (DAPI nuclear signal decrease) in the assay on DAPI (mean of runs) was > 25 µM (inactive); in the assay with DAPI (run 1) it was more than 25 µM; in the assay with DAPI (run 2), more than 25 µM. In addition, the IC50 in the assay on TAG (mean of runs) is > 25 µM (inactive); in the assay on TAG (run 1), more than 25 µM; with TAG (run 2), more than 25 µM.
For `COc1ccccc1NC(=O)Nc1nc(C(N)Cc2ccc(C(F)(F)F)cc2)cs1` (configuration not stated), the IC50 cytotoxicity (DAPI nuclear signal decrease) in the assay with DAPI (mean of runs) is > 25 µM (inactive); with DAPI (run 1), more than 25 µM; with DAPI (run 2) it was more than 25 µM. Also, the results for the IC50 with TAG (run 1) and in the assay with TAG (run 2) were 16.1 µM and more than 25 µM, respectively.
For the compound `COc1cc(/C=C2\Oc3ccc(C#Cc4ccc(O)cc4)cc3C2=O)cc(OC)c1`, the IC50 cytotoxicity (DAPI nuclear signal decrease) in the assay on DAPI (mean of runs) is 4.72 µM (inactive); with DAPI (run 1), 5.07 µM; in the assay with DAPI (run 2), 4.36 µM. Besides, the IC50 with TAG (mean of runs) is 3.01 µM; in the assay with TAG (run 1), 3.1 µM; in the assay with TAG (run 2), 2.92 µM.
As for `C[C@H](CO)N1C[C@H](C)[C@@H](CN(C)Cc2ccc(-c3ccccc3)cc2)Oc2c(NC(=O)Cc3ccccc3)cccc2C1=O`, the IC50 cytotoxicity (DAPI nuclear signal decrease) in the assay on DAPI (mean of runs) was > 25 µM (inactive); with DAPI (run 1), more than 25 µM; in the assay with DAPI (run 2), more than 25 µM. The IC50 in the assay with TAG (mean of runs) is 11.3 µM; with TAG (run 1), 12.4 µM; with TAG (run 2) it was 10.2 µM.
As for `O=c1c2c3nc4ccccc4nc3n(/N=C/c3ccccn3)c2ncn1-c1ccccc1`, the IC50 cytotoxicity (DAPI nuclear signal decrease) in the assay with DAPI (run 1) and in the assay with DAPI (run 2) was more than 25 µM each time. For the same compound, the IC50 was 2.48 µM in the assay with TAG (mean of runs), 3.37 µM with TAG (run 1) and 1.59 µM in the assay on TAG (run 2).
For the compound `CCN(C(=O)COC(=O)c1cc(-c2ccccc2)nc2c1c(C)nn2-c1ccc(C)cc1)C1CCS(=O)(=O)C1` (configuration not stated), the figures for the IC50 cytotoxicity (DAPI nuclear signal decrease) in the assay with DAPI (mean of runs), in the assay on DAPI (run 1) and in the assay with DAPI (run 2) were > 25 µM (inactive), more than 25 µM and more than 25 µM, respectively. In addition, the IC50 is > 25 µM (inactive) in the assay on TAG (mean of runs), more than 25 µM in the assay with TAG (run 1) and more than 25 µM in the assay with TAG (run 2).
For the compound `CN1CSC(=S)N(C)C1`, the IC50 cytotoxicity (DAPI nuclear signal decrease) in the assay on DAPI (mean of runs) is > 25 µM (inactive); in the assay with DAPI (run 1) it was more than 25 µM; with DAPI (run 2) it was more than 25 µM. In addition, the figures for the IC50 in the assay on TAG (mean of runs), in the assay with TAG (run 1) and in the assay on TAG (run 2) were > 25 µM (inactive), more than 25 µM and more than 25 µM, respectively.
